ChEMBL document CHEMBL4706653, “Ultra-short lipopeptides against gram-positive bacteria while alleviating antimicrobial resistance” (Eur J Med Chem, 2021)
≈ marks a conversion by molar mass, not a printed value. Calls of active or inactive are those of the source. The calls are words filed in the database; no cut-off is given here. Residues, ends and D or L forms follow the SMILES beside them. *: point of attachment. Myristoyl = CCCCCCCCCCCCCC(=O)*; Lauroyl = CCCCCCCCCCCC(=O)*

What was measured:
Staphylococcus aureus [1] = test: Antimicrobial activity against Staphylococcus aureus ATCC 29213 after 18 hrs by broth microdilution method; format: functional
Bacillus subtilis = test: Antimicrobial activity against Bacillus subtilis ATCC 23857 after 18 hrs by broth microdilution method; format: functional
Staphylococcus aureus [2] = test: Antimicrobial activity against methicillin-resistant Staphylococcus aureus 113 after 18 hrs by broth microdilution method; format: functional
Erythrocyte = test: Hemolytic activity against mouse erythrocytes measured after 1 hr; format: ADME, cell-based
Staphylococcus aureus [3] = test: Antimicrobial activity against Staphylococcus aureus ATCC 25923 after 18 hrs in presence of NH4Cl by broth microdilution method; format: functional
Staphylococcus aureus [4] = test: Antimicrobial activity against Staphylococcus aureus ATCC 25923 after 18 hrs in presence of 2.5% serum by broth microdilution method; format: functional
Staphylococcus aureus [5] = test: Antimicrobial activity against Staphylococcus aureus ATCC 25923 after 18 hrs in presence of 5% serum by broth microdilution method; format: functional
Staphylococcus aureus [6] = test: Ratio of MIC for antimicrobial activity against Staphylococcus aureus ATCC 25923 in presence of 5% serum to MIC for antimicrobial activity against Staphylococcus aureus ATCC 25923 in absence of serum; format: functional
Staphylococcus aureus [7] = test: Ratio of MIC for antimicrobial activity against Staphylococcus aureus ATCC 25923 in presence of 10% serum to MIC for antimicrobial activity against Staphylococcus aureus ATCC 25923 in absence of serum; format: functional
Staphylococcus aureus [8] = test: Antimicrobial activity against ciprofloxacin-treated persistent form of Staphylococcus aureus ATCC 25923 assessed as bacterial killing at 8 times MIC preincubated up to 48 hrs followed by compound washout and subsequent replating on MHB agar by colony counting method; format: functional, organism-based; details: time hrs <=48
Staphylococcus aureus [9] = test: Antimicrobial activity against Staphylococcus aureus ATCC 25923 at 0.5 times MIC after 15 passages by broth microdilution method; format: functional, organism-based
[10] = system: Staphylococcus epidermidis; test: Potentiation of ciprofloxacin-induced antimicrobial activity against Staphylococcus epidermidis ATCC 12228 at 0.5 times MIC after 15 passages by broth microdilution method; format: functional, organism-based
Staphylococcus aureus [11] = test: Antimicrobial activity against ciprofloxacin-resistant Staphylococcus aureus ATCC 25923 after 18 hrs by broth microdilution method; format: functional, organism-based
[12] = system: Staphylococcus epidermidis; test: Potentiation of ciprofloxacin-induced antimicrobial activity against ciprofloxacin-resistant Staphylococcus epidermidis ATCC 12228 assessed as ciprofloxacin MIC at 0.5 times MIC after 15 passages by broth microdilution method; format: functional
[13] = system: Staphylococcus epidermidis; test: Antimicrobial activity against ciprofloxacin-resistant Staphylococcus epidermidis ATCC 12228 at 0.5 to 8 uM measured after 18 hrs in presence of ciprofloxacin by checkerboard assay; format: functional, organism-based; details: dose 0.5-8 µM
Staphylococcus aureus [14] = test: Antimicrobial activity against methicillin-resistant Staphylococcus aureus 75 at 0.5 to 8 uM measured after 18 hrs in presence of ciprofloxacin by checkerboard assay; format: functional, organism-based; details: dose 0.5-8 µM
[15] = system: Staphylococcus epidermidis; test: Antimicrobial activity against ciprofloxacin-resistant Staphylococcus epidermidis ATCC 12228 after 18 hrs in presence of polymyxin B by checkerboard assay; format: functional, organism-based
Staphylococcus aureus [16] = test: Antimicrobial activity against methicillin-resistant Staphylococcus aureus 113 measured after 18 hrs in presence of polymyxin B by checkerboard assay; format: functional, organism-based
Staphylococcus aureus [17] = test: Potentiation of ciprofloxacin-induced antimicrobial activity against ciprofloxacin-resistant Staphylococcus aureus ATCC 25923 assessed as change in ciprofloxacin MIC at 4 uM after 18 hrs by broth microdilution method relative to ciprofloxacin MIC; format: functional
Staphylococcus aureus [18] = test: Potentiation of ciprofloxacin-induced antimicrobial activity against methicillin-resistant Staphylococcus aureus 75 assessed as change in ciprofloxacin MIC at 2 uM after 18 hrs by broth microdilution method relative to ciprofloxacin MIC; format: functional
Staphylococcus aureus [19] = test: Potentiation of ciprofloxacin-induced antimicrobial activity against ciprofloxacin-resistant Staphylococcus aureus ATCC 25923 assessed as change in ciprofloxacin MIC at 2 uM after 18 hrs by broth microdilution method relative to ciprofloxacin MIC; format: functional
[20] = system: Staphylococcus epidermidis; test: Potentiation of ciprofloxacin-induced antimicrobial activity against ciprofloxacin-resistant Staphylococcus epidermidis ATCC 12228 assessed as change in ciprofloxacin MIC at 2 uM after 18 hrs by broth microdilution method relative to ciprofloxacin MIC; format: functional
Staphylococcus aureus [21] = test: Potentiation of ciprofloxacin-induced antimicrobial activity against methicillin-resistant Staphylococcus aureus 75 assessed as change in ciprofloxacin MIC at 1 uM after 18 hrs by broth microdilution method relative to ciprofloxacin MIC; format: functional
[22] = system: Staphylococcus epidermidis; test: Potentiation of ciprofloxacin-induced antimicrobial activity against ciprofloxacin-resistant Staphylococcus epidermidis ATCC 12228 at 1 uM after 18 hrs by broth microdilution method; format: functional, organism-based
Staphylococcus aureus [23] = test: Potentiation of EtBr-induced antimicrobial activity against ciprofloxacin-resistant Staphylococcus aureus ATCC 25923 at 1 to 2 uM after 18 hrs by broth microdilution method; format: functional, organism-based; details: dose 1-2 µM
Staphylococcus aureus [24] = test: Antibiofilm activity against Staphylococcus aureus ATCC 25923 at 0.5 to 8 uM after 24 hrs by crystal violet staining based assay; format: functional, organism-based; details: dose 0.5-8 µM
Staphylococcus aureus [25] = test: Antibiofilm activity against ciprofloxacin-resistant Staphylococcus aureus ATCC 25923 at 0.5 to 8 uM after 24 hrs by crystal violet staining based assay; format: functional, organism-based; details: dose 0.5-8 µM
Staphylococcus aureus [26] = test: Antibiofilm activity against Staphylococcus aureus ATCC 25923 at 4 to 8 uM after 24 hrs by LIVE/DEAD (SYTO-9/PI) staining based confocal laser scanning microscopic analysis; format: functional, organism-based; details: dose 4-8 µM
Staphylococcus aureus [27] = test: Antibiofilm activity against Staphylococcus aureus ATCC 25923 assessed as biofilm thickness at 8 uM after 24 hrs using LIVE/LEAD (SYTO-9/PI) staining by confocal laser scanning microscopy based 3D image analysis (reference value: 55 micrometer); format: functional
Cell membrane [28] = test: Induction of membrane disruption in Staphylococcus aureus ATCC 25923 measured after 2 hrs by propidium iodide staining based confocal laser scanning microscopic analysis; format: subcellular
Cell membrane [29] = test: Induction of membrane disruption in Staphylococcus aureus ATCC 25923 assessed as PI-positive cells at 4 times MIC measured after 2 hrs by propidium iodide staining based flow cytometry relative to control
Cell membrane [30] = test: Induction of membrane disruption in Staphylococcus aureus ATCC 25923 assessed as appearance of rough membrane at 2 to 4 times MIC measured after 2 to 4 hrs by SEM analysis; format: subcellular; details: time 2-4 hrs
Cell membrane [31] = test: Induction of membrane disruption in Staphylococcus aureus ATCC 25923 assessed as irregular atrophy at 2 to 4 times MIC measured after 2 to 4 hrs by SEM analysis; format: subcellular; details: time 2-4 hrs
Cell membrane [32] = test: Induction of membrane disruption in Staphylococcus aureus ATCC 25923 assessed as formation of dent at 2 to 4 times MIC measured after 2 to 4 hrs by SEM analysis; format: subcellular; details: time 2-4 hrs
Cell membrane [33] = test: Induction of membrane disruption in Staphylococcus aureus ATCC 25923 assessed as membrane blebbing at 2 to 4 times MIC measured after 2 to 4 hrs by SEM analysis; format: subcellular; details: time 2-4 hrs
Cell membrane [34] = test: Induction of membrane disruption in Staphylococcus aureus ATCC 25923 assessed as increase in cell content leakage at 4 times MIC measured after 2 to 4 hrs by SEM analysis; format: subcellular; details: time 2-4 hrs
Cell membrane [35] = test: Induction of membrane disruption in Staphylococcus aureus ATCC 25923 assessed as cell lysis at 4 times MIC measured after 2 to 4 hrs by SEM analysis; format: subcellular; details: time 2-4 hrs
Staphylococcus aureus [36] = test: Induction of reactive oxygen species generation in Staphylococcus aureus ATCC 25923 by […] dye based fluorescence assay; format: functional, organism-based

Structure (SMILES) | MIC (Staphylococcus aureus [1]) [µM] | MIC (Bacillus subtilis) [µM] | MIC (Staphylococcus aureus [2]) [µM] | MHC10 (Erythrocyte) [µM] | MIC (Staphylococcus aureus [3]) [µM] | MIC (Staphylococcus aureus [4]) [µM] | MIC (Staphylococcus aureus [5]) [µM] | Ratio (Staphylococcus aureus [6]) | Ratio (Staphylococcus aureus [7]) | Activity (Staphylococcus aureus [8]) | Activity (Staphylococcus aureus [9]) | Activity [10] | Activity (Staphylococcus aureus [11]) | MIC [12] [µM] | Activity [13] | Activity (Staphylococcus aureus [14]) | Activity [15] | Activity (Staphylococcus aureus [16]) | fold change (FC) (Staphylococcus aureus [17]) | fold change (FC) (Staphylococcus aureus [18]) | other results
CCCCCCCCCCCCCC(=O)N[C@@H](CCCNC(=N)N)C(=O)N[C@@H](Cc1c[nH]c2ccccc12)C(=O)N[C@@H](Cc1c[nH]c2ccccc12)C(N)=O (Myristoyl-Arg-Trp-Trp-NH2) | 8 (≈ 6.05 µg/mL) | 4 (≈ 3.02 µg/mL) | 4 (≈ 3.02 µg/mL) | > 256 | 4 | 8 | 16 | 2 | 2 | Active | Active | Active | Active | 8 | Active | Active | Active | Active | 2 | 2 | fold change (FC) (Staphylococcus aureus [19]): 2; fold change (FC) [20]: 2; fold change (FC) (Staphylococcus aureus [21]): 2; Activity [22]: inactive; Activity (Staphylococcus aureus [23]): Active; Activity (Staphylococcus aureus [24]): Active; Activity (Staphylococcus aureus [25]): Active; Activity (Staphylococcus aureus [26]): Active; Activity (Staphylococcus aureus [27]): 16 um; Activity (Cell membrane [28]): Dose-dependent effect; Activity (Cell membrane [29]): 88.9%; Activity (Cell membrane [30]): Active; Activity (Cell membrane [31]): Active; Activity (Cell membrane [32]): Active; Activity (Cell membrane [33]): Active; Activity (Cell membrane [34]): Active; Activity (Cell membrane [35]): Active; Activity (Staphylococcus aureus [36]): Active
CCCCCCCCCCCC(=O)N[C@@H](CCCNC(=N)N)C(=O)N[C@@H](CCCNC(=N)N)C(=O)N[C@@H](Cc1c[nH]c2ccccc12)C(N)=O (Lauroyl-Arg-Arg-Trp-NH2) | 4 (≈ 2.79 µg/mL) | 4 (≈ 2.79 µg/mL) | 2 (≈ 1.4 µg/mL) | 128 | 4 | 32 | 64 | 8 | 8 | Active | Active | Active | Active | 8 | Active | Active | Active | Active | 2 | 2 | fold change (FC) (Staphylococcus aureus [19]): 2; fold change (FC) [20]: 2; fold change (FC) (Staphylococcus aureus [21]): 2; Activity [22]: inactive; Activity (Staphylococcus aureus [23]): Active; Activity (Staphylococcus aureus [24]): Active; Activity (Staphylococcus aureus [25]): Active; Activity (Staphylococcus aureus [26]): Active; Activity (Staphylococcus aureus [27]): 20 um; Activity (Cell membrane [28]): Dose-dependent effect; Activity (Cell membrane [29]): Active; Activity (Cell membrane [30]): Active; Activity (Cell membrane [31]): Active; Activity (Cell membrane [32]): Active; Activity (Cell membrane [33]): Active; Activity (Cell membrane [34]): Active; Activity (Cell membrane [35]): Active; Activity (Staphylococcus aureus [36]): Active
